The source of these data is PubChem BioAssay (NCI).

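A five-concentration, 48-hour dose response in 96-well plates underlies each endpoint, interpolated linearly between surrounding concentrations. Abbreviation: GI50, concentration required for 50% inhibition of growth. Definition used: TGI = concentration required for complete inhibition of growth.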

Among the test systems are CAKI-1 renal; EKVX NSCLC; HL-60(TB) leukemia; NCI-H522 lung; SF-295 CNS; SK-MEL-2 melanoma; U251 CNS; UACC-62 melanoma; RPMI-8226 leukemia.
What all share (test): growth of human tumour cells (NCI), 48 h

As for `COC(OC)c1cc2c(cc1C(=O)[C@@]13CCC[C@@H]1NC(=O)O3)OCO2`, the TGI in the experiment on CAKI-1 renal, in the experiment on EKVX NSCLC, in the experiment with HL-60(TB) leukemia, in the experiment with NCI-H522 lung, in the experiment with SF-295 CNS and in the experiment with SK-MEL-2 melanoma was greater than 100 µM each time. For the same compound, the TGI with U251 CNS and in the experiment with UACC-62 melanoma was greater than 100 µM each time.
On to `COc1ccc(CCN=C2CCC(C(=O)NCCc3ccc(OC)c(OC)c3)N2)cc1OC` (stereo not given), for which the TGI in the experiment on CAKI-1 renal, in the experiment on EKVX NSCLC, with HL-60(TB) leukemia, with NCI-H522 lung, in the experiment with RPMI-8226 leukemia and in the experiment on SF-295 CNS was greater than 100 µM in each case. In addition, the TGI in the experiment on SK-MEL-2 melanoma, in the experiment on U251 CNS and in the experiment on UACC-62 melanoma was greater than 100 µM throughout.
As to `CC(=O)C1C(=O)N(C(C)C)C[C@@H]2CCC(=O)C[C@H]12` (stereo not given in full), the TGI with CAKI-1 renal, with EKVX NSCLC, in the experiment with HL-60(TB) leukemia, with NCI-H522 lung, in the experiment with RPMI-8226 leukemia and in the experiment with SF-295 CNS was greater than 100 µM in each case. The TGI in the experiment with SK-MEL-2 melanoma, with U251 CNS and in the experiment with UACC-62 melanoma was greater than 100 µM throughout.
As for `Cc1c(C(=O)CSc2nc3ccccc3[nH]2)c(=O)n(-c2ccccc2)n1C`, the TGI in the experiment on CAKI-1 renal, in the experiment with HL-60(TB) leukemia, with NCI-H522 lung, in the experiment with RPMI-8226 leukemia, in the experiment on SF-295 CNS and in the experiment on SK-MEL-2 melanoma was greater than 100 µM in each case. In addition, in the experiment on U251 CNS, the TGI is greater than 100 µM.
As to `C/C(CC(=O)N(C(C)C)C(C)C)=N\NC(=O)c1ccncc1`, the TGI in the experiment with EKVX NSCLC, in the experiment on HL-60(TB) leukemia, with NCI-H522 lung, with RPMI-8226 leukemia, with SF-295 CNS and in the experiment with U251 CNS was greater than 100 µM in each case. In the experiment with UACC-62 melanoma, this compound came in with a TGI greater than 100 µM.
For the compound `COc1cccc(/C=C/C(=O)c2cc3c(N)c(C(=O)Nc4cccc5ccccc45)sc3nc2C)c1`, the GI50 is 1.6 µM with CAKI-1 renal; 1.87 µM with EKVX NSCLC; 1.06 µM in the experiment on HL-60(TB) leukemia; 0.435 µM in the experiment with NCI-H522 lung; 0.461 µM in the experiment with RPMI-8226 leukemia; 1.67 µM with SF-295 CNS. In addition, the GI50 was 1.71 µM in the experiment with SK-MEL-2 melanoma, 0.97 µM in the experiment with U251 CNS and 1.09 µM with UACC-62 melanoma. The TGI in the experiment on CAKI-1 renal is 6.34 µM; in the experiment on EKVX NSCLC it was greater than 50 µM; in the experiment on HL-60(TB) leukemia, 2.61 µM; in the experiment with NCI-H522 lung it was 3.06 µM; in the experiment on RPMI-8226 leukemia, 2.73 µM; in the experiment on SF-295 CNS, 23.1 µM. Besides, the values for the TGI in the experiment with SK-MEL-2 melanoma, in the experiment on U251 CNS and with UACC-62 melanoma were greater than 50 µM, 2.06 µM and 4.74 µM, respectively.
In the case of `O=C1c2ccccc2C(=O)c2nc3ccc(Cl)cc3cc21`, the TGI in the experiment with CAKI-1 renal, in the experiment with EKVX NSCLC, with NCI-H522 lung, in the experiment on RPMI-8226 leukemia, in the experiment with SF-295 CNS and in the experiment on SK-MEL-2 melanoma was greater than 100 µM in each case. Also, the TGI in the experiment on U251 CNS and with UACC-62 melanoma was greater than 100 µM in each case.
On to `CN1CCc2c1nc(-c1ccc([N+](=O)[O-])cc1)c1c2N(C)CC1`, for which the TGI with CAKI-1 renal, in the experiment on EKVX NSCLC, in the experiment on HL-60(TB) leukemia, in the experiment on RPMI-8226 leukemia, with SF-295 CNS and with SK-MEL-2 melanoma was greater than 100 µM throughout. Moreover, the TGI in the experiment on U251 CNS and in the experiment on UACC-62 melanoma was greater than 100 µM each time.
Turning to `CCOC(=O)C1COc2cc(-c3cc(=O)c4ccccc4o3)ccc2O1` (stereo not given), the TGI in the experiment with CAKI-1 renal, in the experiment on EKVX NSCLC, with NCI-H522 lung, in the experiment with SF-295 CNS, with SK-MEL-2 melanoma and in the experiment on U251 CNS was greater than 100 µM in each case. Further, in the experiment on UACC-62 melanoma, the TGI was greater than 100 µM.
In the case of `CC1CC[C@]2(C(=O)O)CCC3(C)C(=CCC4[C@@]5(C)CC[C@H](OS(=O)(=O)c6ccccc6)C(C)(C)C5CC[C@]43C)[C@@H]2[C@H]1C` (stereo not given in full), the TGI in the experiment with CAKI-1 renal, in the experiment on EKVX NSCLC, with NCI-H522 lung, with RPMI-8226 leukemia, in the experiment with SF-295 CNS and in the experiment on SK-MEL-2 melanoma was greater than 100 µM throughout. Besides, the TGI in the experiment with U251 CNS and with UACC-62 melanoma was greater than 100 µM each time.
As for `Cc1ccc(NC(=O)CC(=O)N2N=C(N(CCC#N)c3cccc(C)c3)CC2c2ccccc2)cc1` (stereo not given), the TGI in the experiment with EKVX NSCLC, in the experiment on HL-60(TB) leukemia, in the experiment on NCI-H522 lung, in the experiment on RPMI-8226 leukemia, in the experiment with SF-295 CNS and in the experiment on SK-MEL-2 melanoma was greater than 100 µM throughout. Further, the TGI in the experiment on U251 CNS and in the experiment with UACC-62 melanoma was greater than 100 µM in each case.
Take `COc1ccc(C2CCc3cc4c(cc3/C2=N/OC(C)=O)OCO4)cc1OC` (stereo not given): the TGI in the experiment on EKVX NSCLC was greater than 100 µM; with NCI-H522 lung it was 53.4 µM; in the experiment with RPMI-8226 leukemia, 47.8 µM; in the experiment with SF-295 CNS it was 82.2 µM; in the experiment on SK-MEL-2 melanoma, 64.7 µM; with U251 CNS, greater than 100 µM. The TGI in the experiment with UACC-62 melanoma was found to be 57.7 µM.
Regarding `CC(=O)OC1CC2C(=O)C(=O)C1(C)C2(C)C` (stereo not given), the TGI in the experiment on EKVX NSCLC, in the experiment on RPMI-8226 leukemia, in the experiment with SF-295 CNS, with U251 CNS and with UACC-62 melanoma was greater than 100 µM throughout.
Turning to `Cc1cc(Cl)cc2c1NC(=O)C2=O` (tested in a mixture with another compound), the TGI in the experiment on CAKI-1 renal is greater than 100 µM; in the experiment on EKVX NSCLC, greater than 100 µM; with NCI-H522 lung, 86 µM; in the experiment with SF-295 CNS, greater than 100 µM; with SK-MEL-2 melanoma it was greater than 100 µM; in the experiment on U251 CNS, greater than 100 µM. Besides, the TGI in the experiment with UACC-62 melanoma was 41.6 µM.
For `C[C@@H]1C[C@]2(C[C@@H](C)C3[C@@H](CC4(C)[C@@H]5CCC6C(C)(C)OC(=O)C=C[C@]67C[C@@]5(CC[C@]34C)OO7)O2)OC1=O` (stereo not given in full), the TGI with HL-60(TB) leukemia was greater than 100 µM; with NCI-H522 lung, 90.3 µM; with RPMI-8226 leukemia, greater than 100 µM; in the experiment on SF-295 CNS, greater than 100 µM; with SK-MEL-2 melanoma, greater than 100 µM; in the experiment on U251 CNS, greater than 100 µM. The same compound had a TGI with UACC-62 melanoma greater than 100 µM.
On to `COC(=O)CC(C(C(C)=O)C(=O)OCc1ccccc1)N1C(=O)OCC1c1ccccc1` (stereo not given), for which the TGI in the experiment on EKVX NSCLC, with HL-60(TB) leukemia, with RPMI-8226 leukemia, in the experiment on SF-295 CNS, in the experiment with SK-MEL-2 melanoma and in the experiment with U251 CNS was greater than 100 µM throughout. Also, the TGI in the experiment with UACC-62 melanoma is greater than 100 µM.
